# Source: patent publication US20240016744A1, “NALTREXONE AND RISPERIDONE COMBINATION SUSTAINED-RELEASE COMPOSITION” (SHENZHEN SCIENCARE MEDICAL INDUSTRIES CO.,, priority 2020, published 2024)
# System: methylamphetamine-induced behavioral sensitization (spontaneous activities of the mice)
# Assay: Animal pharmacodynamic evaluation: methylamphetamine-induced behavioral sensitization, spontaneous activity
# Format: in vivo, SD mice
# Conditions: methylamphetamine 2 mg/kg i.p., no implant, from day 7; FIG. 9
# Description: All mice were bred under the same conditions. The product of the present disclosure was surgically implanted into each mouse in a model group before an experiment. Except implantation of the product of the present disclosure, other experimental conditions of a positive control group were the same as those of the model group. Mice in a negative control group were normally bred without undergoing experimental treatment. Behavioral differences among the model group, the positive control group, and the negative control group were observed during the experiment.
# 36 SD mice weighing […], half male and half female, were taken. The mice were randomly divided into 3 groups: a positive control group, a negative control group, and a model group. The compound sustained-release preparation (prepared in Example 1) was implanted into the back of each mouse in the model group before administration, and a challenge experiment was carried out on the second day after surgery.
# During the formative period, methylamphetamine (2 mg/kg) was daily intraperitoneally injected into each mouse in the positive control group and the model group, an equal amount of normal saline was intraperitoneally injected into each mouse in the negative control group for 7 consecutive days. During the conversion period, the drug was withdrawn for 7 days without any treatment. […]
structure (smiles),measurement,value
CN[C@@H](C)Cc1ccccc1 [methylamphetamine],activities of the mice in the positive control group (behavioral sensitization),significantly increased (P<0.05)
